Reference: patent publication US20100305055A1, “COMBINATIONS OF POLYENE FUNGICIDE WITH CATIONIC SURFACTANTS” (Laboratorios Miret, S.A., priority 2007, published 2010)
“Also recorded” adds a separate entry of the source. Each block holds one molecule with its values, some of them ahead of it.

Tests used:
[1] = test system: Penicillum casicolum, Rizopus, Aspergillus niger and Cladosporium cladosporioides; assay: Microbiocidal effect on inoculated cured cheese immersed in baths; assay type: cell-based; conditions: Lauric arginate 10% bath, 5 seconds immersion; inoculated 4 log CFU/g; 22° C.; up to 15 days; separate treatments; monohydrochloride
Protocol: Cured cheese was purchased from a local producer. The cheese contains cow milk, sheep milk, goat milk, starters, salt, rennet. The minimum amount of fat 55%/dry weight. Minimum 45 dry weight. Lauric arginate-from […] with purity 90% Ethyl-N^α-lauroyl-L-arginate HCl. Natamycin-95% in dry weight commercially available. Inoculums is a mix of Penicillum casicolum, Rizopus, Aspergillus niger and Cladosporium cladosporioides. Spores seeded in Sabouraud Chloramphenirol agar are incubated at 25° C. for 5 days. Spores are scraped of the agar with Ringer broth and diluted in Brain Heart Infusion broth. Brain Heart Infusion broth is incubated at 25° C. for 5 days. Diluted inoculums are mixed at the desire concentration in order to have the mix inoculums. […] The cheese was sliced and cut in equal portions of 5 centimeters of diameter by 5 millimeters wide in sterile surroundings. The portions of cheese were immersed in the bath for 5 seconds. They were dripped and dried for 5 minutes in a sterile surface. After this, each sample was inoculated with Penicillum casicolum, Rizopus, Aspergillus niger and Cladosporium cladosporioides at target concentration of 4 log CFU/g. Natamycin 95% concentrations: two differently concentrated baths of natamycin were prepared: 500 ppm and 1000 ppm. Lauric arginate concentrations: four differently concentrated baths of Lauric arginate were prepared: 0.5%, 1%, 5% and 10%. […]

[2] = test system: Cladosporium cladosporioides; assay: MIC and synergy index of natamycin/LAE solutions; assay type: cell-based
Protocol: (§1) In this example the influence of the synergism of combinations of LAE and natamycin in the inventive composition has been investigated.
(§2) For that purpose propylene glycol solutions with different concentrations of LAE and natamyin were prepared.
(§3) The effects of these preparations were investigated against the moulds Aspergillus niger, Penicillium caseicolum, Cladosporium cladosporioides and Rhizopus, the bacteria Escherichia coli (ATCC 8739), Salmonella typhimurium (ATCC 14028), Listeria monocytogenes (ATCC 15313), Bacillus subtilis (ATCC 6633) and the yeasts Candida albicans (ATCC 10231) and Saccharomyces cerevisiae (ATCC 9763).
(§4) The table indicates the MIC values found at different relationship between natamycin and LAE, whereby a value for natamycin: LAE 1:1 means the same concentration for both substances in the antimicrobial composition.
(§5) The interaction of the two components of the antimicrobial mixture is calculated according to the method described by Kull et al. (Kull F. C., Eisman P. C., Sylwestrowicz H. D. and Mayer R. L., Applied Microbiology, 1961; 6: 538-541). According to this method the so-called synergy index is calculated according to the following formula:
(§6) Synergy index SI=Qlae/QLAE+Qn/QN.
(§7) The elements used for the calculation of the synergy index according to the above formula have the following meaning: • Qlae=minimum inhibition concentration of LAE in the mixture of LAE and natamycin, • QLAE=minimum inhibition concentration of LAE as single antimicrobial without natamycin, • Qn=minimum inhibition concentration of natamycin in the mixture of LAE and natamycin and • QN=minimum inhibition concentration of natamycin as single antimicrobial without LAE.
(§8) All indicated symbols indicate a particular concentration leading to a particular end point, in this case the inhibition of growth of the microorganisms, so that the selected end point is in fact the minimal inhibitory concentration (MIC).
(§9) When the synergy index is 1, then there is an addition of the effects of the two components.
(§10) Qn: MIC of natamycin in the mixture of natamycin and LAE QN: MIC of natamycin alone Qlae: MIC of LAE in the mixture of natamycin and LAE QLAE: MIC of LAE alone

Aspergillus niger = assay: MIC and synergy index of natamycin/LAE solutions; assay type: cell-based
Protocol: as §1, §2, §3, §4, §5, §6, §7, §8, §9, §10

[3] = test system: Saccharomyces cerevisiae ATCC 9763; assay: MIC and synergy index of natamycin/LAE solutions; assay type: cell-based
Protocol: as §1, §2, §3, §4, §5, §6, §7, §8, §9, §10

Rhizopus = assay: MIC and synergy index of natamycin/LAE solutions; assay type: cell-based
Protocol: as §1, §2, §3, §4, §5, §6, §7, §8, §9, §10

[4] = test system: Candida albicans ATCC 10231; assay: MIC and synergy index of natamycin/LAE solutions; assay type: cell-based
Protocol: as §1, §2, §3, §4, §5, §6, §7, §8, §9, §10

Penicillium caseicolum = assay: MIC and synergy index of natamycin/LAE solutions; assay type: cell-based
Protocol: as §1, §2, §3, §4, §5, §6, §7, §8, §9, §10

[5] = test system: Escherichia coli ATCC 8739; assay: MIC and synergy index of natamycin/LAE solutions; assay type: cell-based
Protocol: as §1, §2, §3, §4, §5, §6, §7, §8, §9, §10
(§11) The MIC values of natamycin alone (QN) reported in tables 5 to 8 corresponds to the maximum value studied. However, the real MIC of natamycin is higher than the maximum values studied (i.e.: 1024, 2048), accordingly the real SI should be lower than the SI reported in the tables.

[6] = test system: Bacillus subtilis ATCC 6633; assay: MIC and synergy index of natamycin/LAE solutions; assay type: cell-based
Protocol: as §1, §2, §3, §4, §5, §6, §7, §8, §9, §10, §11

[7] = test system: Salmonella typhimurium ATCC 14028; assay: MIC and synergy index of natamycin/LAE solutions; assay type: cell-based
Protocol: as §1, §2, §3, §4, §5, §6, §7, §8, §9, §10, §11

[8] = test system: Listeria monocytogenes ATCC 15313; assay: MIC and synergy index of natamycin/LAE solutions; assay type: cell-based
Protocol: as §1, §2, §3, §4, §5, §6, §7, §8, §9, §10, §11

[9] = cited from earlier work
[10] = Solubility of natamycin in aqueous solution with LAE; assay type: physicochemical; conditions: 10% of LAE in water
Description: According to the dose level between natamycin and LAE, the total solubility of natamycin was observed. […] This low viscosity improves the application process of the solution in the product desired to be treated.

[11] = value is the maximum value studied, real MIC is higher

SMILES: CCCCCCCCCCCC(=O)N[C@@H](CCCN=C(N)N)C(=O)OCC.Cl [LAE, ethyl ester of the lauramide of the arginine monohydrochloride]
- inhibitory power / microbiocidal effect on cured cheese [1]: best treatment; also recorded: effective
- QLAE: MIC of LAE alone [2]: 64
- QLAE: MIC of LAE alone (Aspergillus niger): 128
- QLAE: MIC of LAE alone [3]: 32
- QLAE: MIC of LAE alone (Rhizopus): 648
- QLAE: MIC of LAE alone [4]: 16
- QLAE: MIC of LAE alone (Penicillium caseicolum): 256
- QLAE: MIC of LAE alone [5]: 32
- QLAE: MIC of LAE alone [6]: 16
- QLAE: MIC of LAE alone [7]: 32
- QLAE: MIC of LAE alone [8]: 32

- natamycin solubilised [10]: more than 1000 ppm
- QN: MIC of natamycin alone [2]: 1
- QN: MIC of natamycin alone (Aspergillus niger): 2
- QN: MIC of natamycin alone [3]: 2.5
- QN: MIC of natamycin alone (Rhizopus): 4
- QN: MIC of natamycin alone [4]: 2
- QN: MIC of natamycin alone (Penicillium caseicolum): 1
- QN: MIC of natamycin alone [5, 11]: > 1024
- QN: MIC of natamycin alone [6, 11]: > 2048
- QN: MIC of natamycin alone [7, 11]: > 2048
- QN: MIC of natamycin alone [8, 11]: > 1024
SMILES: C[C@@H]1C/C=C/C=C/C=C/C=C/[C@H](O[C@@H]2O[C@H](C)[C@@H](O)[C@H](N)[C@@H]2O)C[C@@H]2O[C@](O)(C[C@@H](O)C[C@H]3O[C@@H]3/C=C/C(=O)O1)C[C@H](O)[C@H]2C(=O)O [natamycin]
- solubility of natamycin in water [9]: 0.005-0.010 % (w/w)
